Measurements published in US10327423B2, “Antimicrobial compounds and compositions, and uses thereof” (Akeso Biomedical, Inc., priority 2014, dated 2019).
Entries after “also recorded” stand apart in the source; their conditions may differ.

Key:
[1] = test system: Staphylococcus epidermidis F1513; test: Biofilm formation on plastic coated UV beads; type: cell-based; settings: different concentrations of Fe-QA; T=24 h
Protocol: (§1) Bacteria (Enterococcus faecalis NCTC 12697, Staphylococcus epidermidis F1513 and Staphylococcus aureus ATCC 25923) were grown on Brain heart infusion (BHI) passaged to new medium either containing Fe-QA or alone. Growth suspensions were prepared at 0.0001 OD/ml and then allowed to grow at 37° C. under normal atmospheric conditions for 24 h in BHI with plastic coated UV beads (Lascells). […], 10 μl suspension was serially diluted 10 fold to 10-3, 10-4, 10-5, 10-6, 10-7, 10-8. For each dilution, 10 μl was spotted on BHI agar plates and colonies counted after 24 h. The beads were also removed washed in PBS before adding to 1 ml PBS. After vortex mixing, 10 μl of the cell suspension was serially diluted as above and cell counts carried out.
The effect of Fe-QA on biofilm formation by S. epidermidis F1513 was tested as described in the materials and methods of Example 1.

[2] = test system: Camyplobacter jejuni NCTC 11168; test: Motility on brain-heart infusion plate; type: cell-based, Campylobacter jejuni; settings: FeQ 34 μM; 43 hours
Protocol: Camyplobacter jejuni NCTC 11168 was treated with FeQ (34 μM) and a plate containing brain-heart infusion (BHI) medium inoculated with […], 2×10^5 colony forming units of the treated bacteria and the plate was cultured for 43 hours. The growth and motility of the bacteria after treatment with FeQ was compared to a positive control where the bacteria had not been treated with FeQ, and also to a negative control where no bacteria were applied to a plate of the BHI medium. […] In contrast, Campylobacter jejuni that was not treated with FeQ was motile, and spread around the culture plate. There was no growth visible, as expected, on the plates that were not inoculated with bacteria.

[3] = test system: Staphylococcus aureus ATCC 25923; test: Biofilm formation on plastic coated UV beads; type: cell-based; settings: different concentrations of Fe-QA; T=24 h
Protocol: as §1
The effect of Fe-QA on biofilm formation by S. aureus was tested as described in the materials and methods of Example 1.

[4] = Growth performance of broilers challenged with Campylobacter dirty litter at day 20; type: in vivo, chicken (Ross 308 male broilers); settings: treatment groups 3, 5, 6, 7 (FeQ) and 8 (FeTyr)
Protocol: A study was performed to evaluate growth promotion and reduction of Campylobacter carriage using FeQ and FeTyr in Ross 308 male broilers with 7 treatment groups. Each treatment group comprised four replicates of 10 birds per pen (40 birds/treatment group and 4 pens of 10 birds/treatment group), and there were 2 control groups and 5 test groups. All the test groups and one of the control groups were exposed at day 20 of the trial to dirty litter, which tested positive for Campylobacter. This method was used to provide a more natural method to Campylobacter challenge the birds. Thus there was a positive control where one treatment group was challenged with Campylobacter and one negative control group where the birds were not challenged, and five treatment groups that were all challenged with Campylobacter. The total number of birds used in the 7 treatment groups was 280. Treatment group 1 was a negative control where birds just received the commercial feed, and were not challenged with dirty litter containing Campylobacter. Treatment group 2 was the positive control where the birds received the commercial feed, and were challenged with dirty litter containing Campylobacter at day 20. Treatment group 3 received 0.22 g/L of FeQ in their drinking water and 0.22 g/Kg FeQ in their feed during the entire trial, and was challenged with dirty litter containing Campylobacter at day 20. Treatment group 5 received 0.22 g/L of FeQ in their drinking water during the entire trial, and was challenged with dirty litter containing Campylobacter at day 20. Treatment group 6 received 0.22 g/kg FeQ in their feed during the entire trial, and was challenged with dirty litter containing Campylobacter at day 20. Treatment group 7 received 0.022 g/L FeQ in their drinking water during the entire trial, and was challenged with dirty litter containing Campylobacter at day 20. Treatment group 8 received 0.02 g/L FeTyr in their drinking water during the entire trial, and was challenged with dirty litter containing Campylobacter at day 20. The FeTyr was pre-dissolved in DMSO, and diluted to provide a solution of 0.02 g/L of FeTyr in water. (An additional treatment group 4 was terminated due to solubility issues.) […]
The feeding program is show in Table 4. […] All birds were weighed individually and feed weigh backs recorded per pen at day 0, 11, 21, 24 and 42 days.
In order to minimize risk of cross-contamination, standard industry biosecurity measures were used including: disinfecting boots, changing overshoes and gloves between pens/treatments, entering Campylobacter negative pens before entering Campylobacter positive pens, and leaving adjacent pens empty. Daily health, culls, and mortality were recorded. All bird weights were recorded at 0, 11, 21, 24, 33 and 42 days. […]

[5] = test system: kanamycin resistant strain of Enteropathogenic E. coli EPEC (E2348/69); test: Growth of kanamycin resistant EPEC with Fe-QA and kanamycin (patch on growth plate, growth curve); type: cell-based, Escherichia coli
Protocol: A kanamycin resistance gene was introduced into the genome of Enteropathogenic E. coli EPEC, (E2348/69), genotype; Wildtype EPEC-O-17:H6 allowing the kanamycin resistant strain of EPEC to grow in the presence of a patch that has been immersed in kanamycin (at a concentration of 50 μg/mL). The kanamycin resistant strain of EPEC was then immersed in a patch in a solution of Fe-QA.

Compound: O=C1[O][Fe]23([O]C(=O)[C@]4(C[C@@H](O)[C@H](O)[C@H](O)C4)[O]2)([O]C(=O)[C@]2(C[C@@H](O)[C@H](O)[C@H](O)C2)[O]3)[O][C@@]12C[C@@H](O)[C@H](O)[C@H](O)C2 [FeQ, a complex of quinic acid with Fe III]
- biofilm formation on plastic coated UV beads [1]: inhibited
- motility of bacteria on BHI plate [2]: not motile
- biofilm formation on plastic coated UV beads [3]: inhibited
- ABW at day 42 versus positive control (challenged, untreated) [4]: performed better than the positive control
- MFCR at day 42 versus positive control (challenged, untreated) [4]: performed better than the positive control
- rate of growth (growth curve) relative to kanamycin alone ([5]; kanamycin and Fe-QA): inhibited
- rate of growth (growth curve) ([5]; medium only containing Fe-QA): most rapid growth
- bacterial growth on plate around patch ([5]; patch immersed in Fe-QA alone): no impact on the growth; also recorded: no significant effect on bacterial growth
- bacterial growth on plate around patch ([5]; patch immersed in Fe-QA and kanamycin (50 μg/mL)): fail to grow
